Like-named read-outs stand apart in the source and are kept apart here.
Key:
Assay type in all cases: in vivo
[1] = tested on: Galium (catchweed bedstraw, Galium aparine); assay: Test A postemergence; settings: Galium, post-emergence, 240 h; for pest or weed control at 125 g/ha: 125 g ai/ha, read-out: Galium plant response rating (0 to 100 scale); for pest or weed control at 500 g/ha: 500 g ai/ha, visual injury, 0 to 100 scale (0 no effect, 100 complete control), approx. 10 d, read-out: Plant response rating, Galium
How it was run: (§1)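 Preemergence soil spray on seeded pots or post-emergence spray on 1–2 leaf plants, in loam–sand blend. Greenhouse ~10 d. Visual rating 0–100 against untreated plants.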

[2] = tested on: Kochia (Kochia scoparia); assay: Test A postemergence; settings: Bassia scoparia, post-emergence, 240 h; for pest or weed control at 125 g/ha: 125 g ai/ha, read-out: Kochia plant response rating (0 to 100 scale); for pest or weed control at 500 g/ha: 500 g ai/ha, visual injury, 0 to 100 scale (0 no effect, 100 complete control), approx. 10 d, read-out: Plant response rating, Kochia
How it was run: as §1

[3] = tested on: barnyardgrass (Echinochloa crus-galli); assay: Test A postemergence; settings: Echinochloa crus-galli, post-emergence, 240 h; for pest or weed control at 125 g/ha: 125 g ai/ha; for pest or weed control at 500 g/ha: 500 g ai/ha, visual injury, 0 to 100 scale (0 no effect, 100 complete control), approx. 10 d, read-out: Plant response rating, Barnyardgrass
How it was run: as §1

[4] = tested on: blackgrass (Alopecurus myosuroides); assay: Test A postemergence; settings: Alopecurus myosuroides, post-emergence, 240 h; for pest or weed control at 125 g/ha: 125 g ai/ha, read-out: Blackgrass plant response rating (0 to 100 scale); for pest or weed control at 500 g/ha: 500 g ai/ha, visual injury, 0 to 100 scale (0 no effect, 100 complete control), approx. 10 d, read-out: Plant response rating, Blackgrass
How it was run: as §1

[5] = tested on: corn (Zea mays); assay: Test A postemergence; settings: Zea mays, post-emergence, 240 h; for plant injury at 125 g/ha: 125 g ai/ha, read-out: Corn plant response rating (0 to 100 scale); for Corn plant response rating (crop injury, 0 = no effect, 100 = complete kill) at 500 g/ha: 500 g ai/ha, visual injury, 0 to 100 scale (0 no effect, 100 complete control), approx. 10 d
How it was run: as §1

[6] = tested on: giant foxtail (Setaria faberii); assay: Test A postemergence; settings: Setaria faberi, post-emergence, 240 h; for pest or weed control at 125 g/ha: 125 g ai/ha, read-out: Foxtail, Giant plant response rating (0 to 100 scale); for pest or weed control at 500 g/ha: 500 g ai/ha, visual injury, 0 to 100 scale (0 no effect, 100 complete control), approx. 10 d, read-out: Plant response rating, Foxtail, Giant
How it was run: as §1

[7] = tested on: pigweed (Amaranthus retroflexus); assay: Test A postemergence; settings: Amaranthus retroflexus, post-emergence, 240 h; for pest or weed control at 125 g/ha: 125 g ai/ha, read-out: Pigweed plant response rating (0 to 100 scale); for pest or weed control at 500 g/ha: 500 g ai/ha, visual injury, 0 to 100 scale (0 no effect, 100 complete control), approx. 10 d, read-out: Plant response rating, Pigweed
How it was run: as §1

[8] = tested on: ragweed (common ragweed, Ambrosia elatior); assay: Test A postemergence; settings: Ambrosia artemisiifolia, post-emergence, 240 h; for pest or weed control at 125 g/ha: 125 g ai/ha, read-out: Ragweed plant response rating (0 to 100 scale); for pest or weed control at 500 g/ha: 500 g ai/ha, visual injury, 0 to 100 scale (0 no effect, 100 complete control), approx. 10 d, read-out: Plant response rating, Ragweed
How it was run: as §1

[9] = tested on: ryegrass, Italian (Italian ryegrass, Lolium multiflorum); assay: Test A postemergence; settings: Lolium multiflorum, post-emergence, 240 h; for pest or weed control at 125 g/ha: 125 g ai/ha, read-out: Ryegrass, Italian plant response rating (0 to 100 scale); for pest or weed control at 500 g/ha: 500 g ai/ha, visual injury, 0 to 100 scale (0 no effect, 100 complete control), approx. 10 d, read-out: Plant response rating, Ryegrass, Italian
How it was run: as §1

[10] = tested on: wheat (Triticum aestivum); assay: Test A postemergence; settings: Triticum aestivum, post-emergence, 240 h; for plant injury at 125 g/ha: 125 g ai/ha, read-out: Wheat plant response rating (0 to 100 scale); for plant injury at 500 g/ha: 500 g ai/ha, visual injury, 0 to 100 scale (0 no effect, 100 complete control), approx. 10 d, read-out: Plant response rating, Wheat
How it was run: as §1

[11] = tested on: barnyardgrass (Echinochloa crus-galli); assay: Test B flooded paddy test; settings: Echinochloa crus-galli, 250 g ai/ha, Flood; 0 to 100 scale where 0 is no effect and 100 is complete control; read-out: Barnyardgrass plant response rating
How it was run: (§2)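 Response scored visually against untreated controls, 0 = no effect and 100 = complete control, 13–15 d after treatment in the greenhouse. Compounds added to paddy water held 3 cm above soil surface. Treatment given at 2-leaf stage.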

[12] = tested on: ducksalad (Heteranthera limosa); assay: Test B flooded paddy test; settings: Heteranthera limosa, 250 g ai/ha, Flood; 0 to 100 scale where 0 is no effect and 100 is complete control; read-out: Ducksalad plant response rating
How it was run: as §2

[13] = tested on: rice (Oryra sativa); assay: Test B flooded paddy test; settings: Oryza sativa, 250 g ai/ha, Flood; 0 to 100 scale where 0 is no effect and 100 is complete control; read-out: Rice plant response rating
How it was run: as §2

[14] = tested on: sedge, umbrella (small-flower umbrella sedge, Cyperus difformis); assay: Test B flooded paddy test; settings: Cyperus difformis, 250 g ai/ha, Flood; 0 to 100 scale where 0 is no effect and 100 is complete control; read-out: Sedge, Umbrella plant response rating
How it was run: as §2

[15] = postemergence, visual injury vs untreated controls after approx. 10 d, 0 = no effect, 100 = complete control
[16] = postemergence, visual injury vs untreated controls after approx. 10 d, 0 = no effect, 100 = complete control, read-out: Barnyardgrass plant response rating (0 to 100 scale)
[17] = Postemergence, visual rating about 10 d after treatment

Compound: Cc1c(F)cccc1NC(=O)[C@H]1C(=O)N(C)C[C@@H]1c1ccc2c(c1)OC(F)(F)O2 [Compound 1252]
- pest or weed control at 125 g/ha [1, 15]: 50%
- pest or weed control at 500 g/ha ([1]; Postemergence): 60%
- pest or weed control at 125 g/ha [2, 15]: 20%
- pest or weed control at 500 g/ha ([2]; Postemergence): 60%
- pest or weed control at 125 g/ha [3, 16]: 80%
- pest or weed control at 500 g/ha ([3]; Postemergence): 90%
- pest or weed control at 125 g/ha [4, 15]: 50%
- pest or weed control at 500 g/ha ([4]; Postemergence): 50%
- plant injury at 125 g/ha [5, 15]: 80%
- Corn plant response rating (crop injury, 0 = no effect, 100 = complete kill) at 500 g/ha ([5]; Postemergence): 90%
- pest or weed control at 125 g/ha [6, 15]: 80%
- pest or weed control at 500 g/ha ([6]; Postemergence): 80%
- pest or weed control at 125 g/ha [7, 15]: 0%
- pest or weed control at 500 g/ha ([7]; Postemergence): 50%
- pest or weed control at 125 g/ha [8, 15]: 0%
- pest or weed control at 500 g/ha ([8]; Postemergence): 50%
- pest or weed control at 125 g/ha [9, 15]: 70%
- pest or weed control at 500 g/ha ([9]; Postemergence): 70%
- plant injury at 125 g/ha [10, 15]: 70%
- plant injury at 500 g/ha ([10]; Postemergence): 70%
- pest or weed control at 250 g/ha [11]: 65%
- pest or weed control at 250 g/ha [12]: 100%
- pest or weed control at 250 g/ha [13]: 30%
- pest or weed control at 250 g/ha [14]: 0%

Compound: CN1C[C@H](c2ccc(F)c(C#N)c2)[C@@H](C(=O)Nc2ccccc2F)C1=O [Compound 1254]
- pest or weed control at 125 g/ha [1, 15]: 30%
- pest or weed control at 500 g/ha ([1]; Postemergence): 50%
- pest or weed control at 125 g/ha [2, 15]: 0%
- pest or weed control at 500 g/ha ([2]; Postemergence): 40%
- pest or weed control at 125 g/ha [3, 16]: 80%
- pest or weed control at 500 g/ha ([3]; Postemergence): 90%
- pest or weed control at 125 g/ha [4, 15]: 0%
- pest or weed control at 500 g/ha ([4]; Postemergence): 40%
- plant injury at 125 g/ha [5, 15]: 20%
- Corn plant response rating (crop injury, 0 = no effect, 100 = complete kill) at 500 g/ha ([5]; Postemergence): 50%
- pest or weed control at 125 g/ha [6, 15]: 80%
- pest or weed control at 500 g/ha ([6]; Postemergence): 80%
- pest or weed control at 125 g/ha [7, 15]: 0%
- pest or weed control at 500 g/ha ([7]; Postemergence): 20%
- pest or weed control at 125 g/ha [8, 15]: 0%
- pest or weed control at 500 g/ha ([8]; Postemergence): 0%
- pest or weed control at 125 g/ha [9, 15]: 0%
- pest or weed control at 500 g/ha ([9]; Postemergence): 70%
- plant injury at 500 g/ha ([10]; Postemergence): 40%
- pest or weed control at 250 g/ha [11]: 60%
- pest or weed control at 250 g/ha [12]: 100%
- pest or weed control at 250 g/ha [13]: 0%
- pest or weed control at 250 g/ha [14]: 0%

Compound: CSc1ccccc1NC(=O)[C@H]1C(=O)NC[C@@H]1c1ccc2c(c1)OCO2 [Compound 1257]
- pest or weed control at 125 g/ha [1, 15]: 0%
- pest or weed control at 500 g/ha ([1]; Postemergence): 0%
- pest or weed control at 125 g/ha [2, 15]: 0%
- pest or weed control at 500 g/ha ([2]; Postemergence): 0%
- pest or weed control at 125 g/ha [3, 16]: 0%
- pest or weed control at 500 g/ha ([3]; Postemergence): 0%
- pest or weed control at 125 g/ha [4, 15]: 0%
- pest or weed control at 500 g/ha ([4]; Postemergence): 0%
- plant injury at 125 g/ha [5, 15]: 0%
- Corn plant response rating (crop injury, 0 = no effect, 100 = complete kill) at 500 g/ha ([5]; Postemergence): 0%
- pest or weed control at 125 g/ha [6, 15]: 0%
- pest or weed control at 500 g/ha ([6]; Postemergence): 0%
- pest or weed control at 125 g/ha [7, 15]: 0%
- pest or weed control at 500 g/ha ([7]; Postemergence): 0%
- pest or weed control at 125 g/ha [8, 15]: 0%
- pest or weed control at 500 g/ha ([8]; Postemergence): 0%
- pest or weed control at 125 g/ha [9, 15]: 0%
- pest or weed control at 500 g/ha ([9]; Postemergence): 0%
- plant injury at 500 g/ha ([10]; Postemergence): 0%
- pest or weed control at 250 g/ha [11]: 20%
- pest or weed control at 250 g/ha [12]: 0%
- pest or weed control at 250 g/ha [13]: 0%
- pest or weed control at 250 g/ha [14]: 0%

Compound: COc1cc([C@H]2CN(C)C(=O)[C@@H]2C(=O)Nc2cccc(F)c2F)ccc1F [Compound 1299]
- pest or weed control at 125 g/ha [1, 17]: 40%
- pest or weed control at 500 g/ha ([1]; Postemergence): 50%
- pest or weed control at 125 g/ha [2, 17]: 0%
- pest or weed control at 500 g/ha ([2]; Postemergence): 60%
- pest or weed control at 125 g/ha ([3]; Postemergence, visual rating about 10 d after treatment, read-out: Barnyardgrass plant response rating (0 to 100 scale, 0 no effect, 100 complete control)): 90%
- pest or weed control at 500 g/ha ([3]; Postemergence): 90%
- pest or weed control at 125 g/ha [4, 17]: 20%
- pest or weed control at 500 g/ha ([4]; Postemergence): 60%
- plant injury at 125 g/ha [5, 17]: 40%
- Corn plant response rating (crop injury, 0 = no effect, 100 = complete kill) at 500 g/ha ([5]; Postemergence): 80%
- pest or weed control at 125 g/ha [6, 17]: 90%
- pest or weed control at 500 g/ha ([6]; Postemergence): 90%
- pest or weed control at 125 g/ha [7, 17]: 0%
- pest or weed control at 500 g/ha ([7]; Postemergence): 0%
- pest or weed control at 125 g/ha [8, 17]: 0%
- pest or weed control at 500 g/ha ([8]; Postemergence): 20%
- pest or weed control at 125 g/ha [9, 17]: 20%
- pest or weed control at 500 g/ha ([9]; Postemergence): 60%
- plant injury at 125 g/ha [10, 17]: 30%
- plant injury at 500 g/ha ([10]; Postemergence): 40%
- pest or weed control at 250 g/ha [11]: 65%
- pest or weed control at 250 g/ha [12]: 85%
- pest or weed control at 250 g/ha [13]: 20%
- pest or weed control at 250 g/ha [14]: 40%
